We go through 25 compounds from patent US20120220581A1, “IMIDAZO[1,2-b]PYRIDAZINE DERIVATIVES AND THEIR USE AS PDE10 INHIBITORS” (Janssen-Cilag, S.A., priority 2009, published 2012).

By ED50 is commonly meant the dose at which the effect has come halfway, by size or by number of responders. The low end stands for greater potency, the high end for weaker potency.

The target in test [1] is T1, Rat recombinant PDE10A (rPDE10A2) (Rattus norvegicus, UniProt Q9QYJ6).
T1 construct: inferred from the Ni metal chelate purification; made in house; host or cells: Sf9 insect cells (baculovirus)
T1 sequence (Q9QYJ6 1-794): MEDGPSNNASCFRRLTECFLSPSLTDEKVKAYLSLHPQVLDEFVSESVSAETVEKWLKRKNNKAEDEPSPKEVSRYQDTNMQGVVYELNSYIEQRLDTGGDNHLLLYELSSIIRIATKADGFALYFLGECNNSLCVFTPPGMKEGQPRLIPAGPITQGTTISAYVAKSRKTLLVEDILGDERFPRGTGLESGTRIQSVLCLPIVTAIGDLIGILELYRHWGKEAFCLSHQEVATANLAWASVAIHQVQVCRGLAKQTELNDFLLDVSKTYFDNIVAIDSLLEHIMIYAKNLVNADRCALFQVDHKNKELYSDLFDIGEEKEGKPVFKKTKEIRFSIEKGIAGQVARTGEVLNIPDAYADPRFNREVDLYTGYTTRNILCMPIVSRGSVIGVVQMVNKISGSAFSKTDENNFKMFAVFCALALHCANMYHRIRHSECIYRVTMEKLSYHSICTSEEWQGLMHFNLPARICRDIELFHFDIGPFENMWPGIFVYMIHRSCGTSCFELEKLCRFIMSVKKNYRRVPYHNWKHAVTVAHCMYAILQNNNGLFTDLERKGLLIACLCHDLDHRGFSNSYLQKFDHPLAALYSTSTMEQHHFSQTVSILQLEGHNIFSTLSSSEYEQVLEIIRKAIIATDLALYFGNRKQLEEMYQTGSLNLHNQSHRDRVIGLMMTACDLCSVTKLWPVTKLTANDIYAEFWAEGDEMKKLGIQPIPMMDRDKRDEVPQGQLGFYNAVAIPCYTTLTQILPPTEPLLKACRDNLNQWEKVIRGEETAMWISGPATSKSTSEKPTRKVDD
Briefly: In vitro assay PDE10A (SPA, 3H-cAMP). In kind it is biochemical. The note with it: pIC50 corresponds to the −log IC50 expressed in mol/L; read-out: PDE10A2 pIC50 (converted). The method, then:
Rat recombinant PDE10A (rPDE10A2) was expressed in Sf9 cells using a recombinant rPDE10A baculovirus construct. Cells were harvested after 48 h of infection and the rPDE10A protein was purified by metal chelate chromatography on Ni-sepharose 6FF. Tested compounds were dissolved and diluted in 100% DMSO to a concentration 100 fold of the final concentration in the assay. Compound dilutions (0.4 μl) were added in 384 well plates to 20 μl of incubation buffer (50 mM Tris pH 7.8, 8.3 mM MgCl2, 1.7 mM EGTA). 10 μl of rPDE10A enzyme in incubation buffer was added and the reaction was started by addition of 10 μl substrate to a final concentration of 60 nM cAMP and 0.008 μCi ^3H-cAMP. The reaction was incubated for 60 minutes at room temperature. […] After sedimentation of the beads during 30 minutes the radioactivity was measured in a Perkin Elmer Topcount scintillation counter and results were expressed as cpm. For blanc values the enzyme was omitted from the reaction and replaced by incubation buffer. Control values were obtained by addition of a final concentration of 1% DMSO instead of compound. The same assay principle is applied for the measurement of the affinity of the compound for other members of the PDE family with appropriate modifications in incubation buffer, substrate concentration, incubation time and stop solution.

Test [2] relates to apomorphine-induced stereotypy in rats. Briefly: Apomorphine-induced stereotypy in rats (APO). In kind it is in vivo. As to conditions: Rattus norvegicus, n.d.: found not active at threshold dose 2.5 mg/kg or 10 mg/kg (a). As to the method: Apomorphine (1.0 mg/kg, i.v.)-induced stereotypy (compulsive sniffing, licking, chewing) was scored every 5 min over the first hour after injection of apomorphine, following a 1 hour interval pre-treatment with the test compound. The score system was: (3) pronounced, (2) moderate, (1) slight, and (0) absent.

For the compound `Cc1nc2c(-c3ccncc3)cc(C3CC3)nn2c1-c1ccc(C2CCOCC2)nc1` [compound 81, 6-cyclopropyl-2-methyl-8-(4-pyridinyl)-3-[6-(tetrahydro-2H-pyran-4-yl)-3-pyridinyl]-imidazo[1,2-b]pyridazine], the IC50 in test [1] is 195 nM. For the same compound, in test [2] (not further tested), the ED50 is > 2.5 mg/kg.
The corresponding values for `c1cc(N2CCOCC2)c2ncc(-c3ccc(C4CCOCC4)nc3)n2n1` [compound 82, 8-(4-morpholinyl)-3-[6-(tetrahydro-2H-pyran-4-yl)-3-pyridinyl]-imidazo[1,2-b]pyridazine] are 145 nM and > 2.5 mg/kg.
The corresponding values for `CCc1ccc(-c2c(C)nc3c(-c4ccncc4)ccnn23)cn1` [compound 83, 3-(6-ethyl-3-pyridinyl)-2-methyl-8-(4-pyridinyl)-imidazo[1,2-b]pyridazine] are 51.3 nM and > 2.5 mg/kg.
Taken in the same sequence, the figures for `CCc1ccc(-c2c(C)nc3c(-c4ccncc4)cc(C4CC4)nn23)cn1` [compound 86, 6-cyclopropyl-3-(6-ethyl-3-pyridinyl)-2-methyl-8-(4-pyridinyl)-imidazo[1,2-b]pyridazine] were 263 nM and > 2.5 mg/kg.
For the compound `CCc1ccc(-c2c(C3CC3)nc3c(-c4ccncc4)ccnn23)cn1` [compound 87, 2-cyclopropyl-3-(6-ethyl-3-pyridinyl)-8-(4-pyridinyl)-imidazo[1,2-b]pyridazine], the IC50 in test [1] was 21.9 nM. Besides, the 50% effective dose (ED50) in test [2] (not further tested) is > 2.5 mg/kg.
The corresponding values for `CCc1ccc(-c2c(C)nc3c(-c4ccncc4)cc(C)nn23)cn1` [compound 88, 3-(6-ethyl-3-pyridinyl)-2,6-dimethyl-8-(4-pyridinyl)-imidazo[1,2-b]pyridazine] are 115 nM and > 2.5 mg/kg.
In the case of `Cc1nc2c(N3CCOCC3)ccnn2c1-c1ccc(N2CCCC2)nc1` [compound 89, 2-methyl-8-(4-morpholinyl)-3-[6-(1-pyrrolidinyl)-3-pyridinyl]-imidazo[1,2-b]pyridazine], the IC50 in test [1] is 132 nM. Moreover, the 50% effective dose (ED50) in test [2] (po, * not soluble, tested orally as a suspension) is > 2.5 mg/kg.
Regarding `Cc1nc2c(N3CCOCC3)ccnn2c1-c1ccc(NC(C)C)nc1` [compound 90, N-(1-methylethyl)-5-[2-methyl-8-(4-morpholinyl)imidazo[1,2-b]pyridazin-3-yl]-2-pyridinamine], the IC50 in test [1] was 67.6 nM. For the same compound, the ED50 in test [2] (not further tested) was > 2.5 mg/kg.
Taken in the same sequence, the figures for `Cc1nc2c(N3CCOCC3)ccnn2c1-c1ccnc(N2CCCC2)c1` [compound 92, 2-methyl-8-(4-morpholinyl)-3-[2-(1-pyrrolidinyl)-4-pyridinyl]-imidazo[1,2-b]pyridazine] were 57.5 nM and > 2.5 mg/kg.
Taken in the same sequence, the figures for `Cc1nc2c(N3CCOCC3)ccnn2c1-c1ccnc(NC(C)C)c1` [compound 93, N-(1-methylethyl)-4-[2-methyl-8-(4-morpholinyl)imidazo[1,2-b]pyridazin-3-yl]-2-pyridinamine] were 25.1 nM and > 2.5 mg/kg.
The corresponding values for `Cc1cc(-c2ccncc2)c2nc(C)c(-c3ccc(N4CCNCC4)nc3)n2n1` [compound 96, 2,6-dimethyl-3-[6-(1-piperazinyl)-3-pyridinyl]-8-(4-pyridinyl)-imidazo[1,2-b]pyridazine] are 186 nM and > 2.5 mg/kg.
Regarding `Cc1nc2c(-c3ccncc3)ccnn2c1-c1ccc(N2CCNCC2)nc1` [compound 97, 2-methyl-3-[6-(1-piperazinyl)-3-pyridinyl]-8-(4-pyridinyl)-imidazo[1,2-b]pyridazine], the IC50 in test [1] is 141 nM. Moreover, the median effective dose (ED50) in test [2] (not further tested) is > 2.5 mg/kg.
The corresponding values for `c1cc(N2CCOCC2)c2nc(C3CC3)c(-c3ccc(N4CCNCC4)nc3)n2n1` [compound 98, 2-cyclopropyl-8-(4-morpholinyl)-3-[6-(1-piperazinyl)-3-pyridinyl]-imidazo[1,2-b]pyridazine] are 110 nM and > 2.5 mg/kg.
As to `Cc1nc2c(-c3ccncc3)cc(C3CC3)nn2c1-c1ccc(N2CCNCC2)nc1` [compound 99, 6-cyclopropyl-2-methyl-3-[6-(1-piperazinyl)-3-pyridinyl]-8-(4-pyridinyl)-imidazo[1,2-b]pyridazine], in test [1], the IC50 is 302 nM. For the same compound, the 50% effective dose (ED50) in test [2] (not further tested) is > 2.5 mg/kg.
Taken in the same sequence, the figures for `Cc1cc(-c2ccncc2)c2nc(C3CC3)c(-c3ccc(N4CCNCC4)nc3)n2n1` [compound 101, 2-cyclopropyl-6-methyl-3-[6-(1-piperazinyl)-3-pyridinyl]-8-(4-pyridinyl)-imidazo[1,2-b]pyridazine] were 178 nM and > 2.5 mg/kg.
For `c1cc(-c2ccnn3c(-c4ccc(N5CCNCC5)nc4)c(C4CC4)nc23)ccn1` [compound 102, 2-cyclopropyl-3-[6-(1-piperazinyl)-3-pyridinyl]-8-(4-pyridinyl)-imidazo[1,2-b]pyridazine], the IC50 in test [1] was 44.7 nM. In test [2] (not further tested), the ED50 is > 2.5 mg/kg.
Taken in the same sequence, the figures for `Cc1nc2c(N3CCOCC3)ccnn2c1-c1ccnc(N2CCNCC2)c1` [compound 103, 2-methyl-8-(4-morpholinyl)-3-[2-(1-piperazinyl)-4-pyridinyl]-imidazo[1,2-b]pyridazine] were 257 nM and > 2.5 mg/kg.
Take `Cc1nc2c(N3CCOCC3)ccnn2c1-c1ccc(CC(C)C)nc1` [compound 104, 2-methyl-3-[6-(2-methylpropyl)-3-pyridinyl]-8-(4-morpholinyl)-imidazo[1,2-b]pyridazine]: the IC50 in test [1] was 53.7 nM. In test [2] (not further tested), the ED50 was > 2.5 mg/kg.
The corresponding values for `Cc1nc2c(N3CCOCC3)ccnn2c1-c1ccnc(CC(C)C)c1` [compound 105, 2-methyl-3-[2-(2-methylpropyl)-4-pyridinyl]-8-(4-morpholinyl)-imidazo[1,2-b]pyridazine] are 25.1 nM and > 2.5 mg/kg.
On to `CCc1ccc(-c2c(C3CC3)nc3c(N4CCOCC4)ccnn23)cn1` [compound 106, 2-cyclopropyl-3-(6-ethyl-3-pyridinyl)-8-(4-morpholinyl)-imidazo[1,2-b]pyridazine], for which the IC50 in test [1] is 66.1 nM. The ED50 in test [2] (not further tested) is > 2.5 mg/kg.
Taken in the same sequence, the figures for `CCc1ccc(-c2c(C)nc3c(N4CCOCC4)cc(C4CC4)nn23)cn1` [compound 107, 6-cyclopropyl-3-(6-ethyl-3-pyridinyl)-2-methyl-8-(4-morpholinyl)-imidazo[1,2-b]pyridazine] were 269 nM and > 2.5 mg/kg.
In the case of `CCc1ccc(-c2c(C)nc3c(N4CCOCC4)cc(C)nn23)cn1` [compound 108, 3-(6-ethyl-3-pyridinyl)-2,6-dimethyl-8-(4-morpholinyl)-imidazo[1,2-b]pyridazine], the IC50 in test [1] was 155 nM. Further, the 50% effective dose (ED50) in test [2] (not further tested) is > 2.5 mg/kg.
Taken in the same sequence, the figures for `CCc1ccc(-c2cnc3c(N4CCOCC4)ccnn23)cn1` [compound 109, 3-(6-ethyl-3-pyridinyl)-8-(4-morpholinyl)-imidazo[1,2-b]pyridazine] were 251 nM and > 2.5 mg/kg.
The corresponding values for `Cc1nc2c(-c3ccncc3)ccnn2c1-c1ccc(C2CC2)nc1` [compound 111, 3-(6-cyclopropyl-3-pyridinyl)-2-methyl-8-(4-pyridinyl)-imidazo[1,2-b]pyridazine] are 97.7 nM and > 2.5 mg/kg.
The corresponding values for `CO[C@H]1CCN(c2ccc(-c3c(C)nc4c(N5CCOCC5)ccnn34)cn2)C1` [compound 113, 3-[6-[(3S)-3-methoxy-1-pyrrolidinyl]-3-pyridinyl]-2-methyl-8-(4-morpholinyl)-imidazo[1,2-b]pyridazine] are 158 nM and > 2.5 mg/kg.
